Legend:
[1] = instrument: DT, single field, calibrated with Agilent tune mix (Agilent)
[2] = instrument: DT, stepped-field
[3] = instrument: DT, single field, calibrated with Agilent tune mix (Agilent); remark: listed apart in the source

Structure (SMILES)	collision cross section (N2) ([1]; [M+H]+) [Å²]	collision cross section (N2) ([2]; [M+H]+) [Å²]	collision cross section (N2) ([2]; [M+Na]+) [Å²]	other results
Cn1cnc(CCN)c1 [1-Methylhistamine]	121.3	122.56	–	–
Cn1cncc1CCN [3-Methylhistamine]	123.8	126.53	–	–
C[C@]12CCC(=O)C=C1CC[C@@H]1[C@@H]2CC[C@]2(C)C(=O)CC[C@@H]12 [Androstenedione]	173.3	183.95	204.73	–
CCCCCCCCCCCCCCCC(=O)N[C@@H](CO)[C@H](O)CCCCCCCCCCCCCCC [Cer(34:0)]	–	–	–	collision cross section (N2) ([3]; [M+HCOO]-): 251.8 Å²
CCCCCCCCCCCCC=CC[C@@H](O)[C@H](CO)NC(=O)CCCCCCCCCCCCCCC [Cer(34:1)]	–	–	–	collision cross section (N2) ([3]; [M+HCOO]-): 250.4 Å²; collision cross section (N2) ([3]; [M+H]+): 253.6 Å²
CCCCCCCCCCCCC=CC[C@@H](O)[C@H](CO)NC(=O)CCCCCCCCCCCCCCCCC [Cer(36:1)]	–	–	–	collision cross section (N2) ([3]; [M+HCOO]-): 257.6 Å²; collision cross section (N2) ([3]; [M+H]+): 261.6 Å²; collision cross section (N2) ([3]; [M+Na]+): 268.6 Å²; collision cross section (N2) ([3]; [M-H]-): 248.6 Å²
CCCCCCCCCCCCCCCCCCCCCC(=O)N[C@@H](CO)[C@H](O)CCCCCCCCCCCCCCC [Cer(40:0)]	–	–	–	collision cross section (N2) ([3]; [M+HCOO]-): 272 Å²; collision cross section (N2) ([3]; [M+H]+): 274.7 Å²; collision cross section (N2) ([3]; [M-H]-): 262.1 Å²
CCCCCCCCCCCCC=CC[C@@H](O)[C@H](CO)NC(=O)CC=CCCCCCCCCCCCCCCCCCCC [Cer(41:2)]	–	–	–	collision cross section (N2) ([3]; [M+H]+): 273.5 Å²; collision cross section (N2) ([3]; [M+Na]+): 273.8 Å²
CCCCCCCCCCCCC=CC[C@@H](O)[C@H](CO)NC(=O)CCCCCCCCCCCCCCCCCCCCCCCCC [Cer(44:1)]	–	–	–	collision cross section (N2) ([3]; [M+H]+): 284.8 Å²; collision cross section (N2) ([3]; [M+Na]+): 285 Å²
C[N+](C)(C)CCOP(=O)([O-])OP(=O)(O)OC[C@H]1O[C@@H](n2ccc(N)nc2=O)[C@H](O)[C@@H]1O [Cytidine 5'-diphosphocholine]	197.6	198.86	208.98	collision cross section (N2) ([1]; [M-H]-): 200.64 Å²
OC[C@H]1O[C@@H](O[C@H]2[C@H](O)[C@@H](O)[C@H](O)O[C@@H]2CO)[C@H](O)[C@@H](O)[C@H]1O [D-Lactose]	–	–	178.83	collision cross section (N2) ([1]; [M+Na]+): 175.1 Å²
CC/C=C\C/C=C\C/C=C\C/C=C\C/C=C\C/C=C\CCC(=O)O[C@@H](CO)COC(=O)CCCCCCCCCCCCCCCCCCC [DG(42:6)]	–	–	–	collision cross section (N2) ([3]; [M+NH4]+): 280.3 Å²
N[C@@H](CCC(=O)N[C@@H](CS)C(=O)NCC(=O)O)C(=O)O [Glutathione]	167.4	–	168.23	–
OC[C@H]1O[C@H](OC[C@H]2OC(O)[C@H](O)[C@@H](O)[C@@H]2O)[C@H](O)[C@@H](O)[C@@H]1O (some centres undefined) [Isomaltose]	–	–	178.02	collision cross section (N2) ([1]; [M+Na]+): 177.3 Å²; collision cross section (N2) ([1]; [M-H]-): 171.96 Å²
O=c1c(O)c(-c2ccc(O)cc2)oc2cc(O)cc(O)c12 [Kaempferol]	162.9	165.99	187.2	collision cross section (N2) ([1]; [M-H]-): 160.32 Å²
CCCC[C@H](N)C(=O)O [L-Norleucine]	–	142.63	–	collision cross section (N2) ([1]; [M-H]-): 129.02 Å²
CCCCCCCCCCCCCCC(=O)OC[C@@H](O)COP(=O)([O-])OCC[N+](C)(C)C [LPC(15:0)]	–	–	–	collision cross section (N2) ([3]; [M+H]+): 225 Å²
CCCCCCCCCCCCCCCCC(=O)OC[C@@H](O)COP(=O)([O-])OCC[N+](C)(C)C [LPC(17:0)]	–	–	–	collision cross section (N2) ([3]; [M+HCOO]-): 237.7 Å²
OC[C@H]1O[C@H](O[C@H]2[C@H](O)[C@@H](O)[C@@H](O[C@H]3[C@H](O)[C@@H](O)C(O)O[C@@H]3CO)O[C@@H]2CO)[C@H](O)[C@@H](O)[C@@H]1O (some centres undefined) [Maltotriose]	–	–	212.54	collision cross section (N2) ([1]; [M+Na]+): 212.7 Å²
CC(=O)[C@H]1CC[C@H]2[C@@H]3CC=C4C[C@@H](O)CC[C@]4(C)[C@H]3CC[C@]12C [Pregnenolone]	174	177.25	216.16	collision cross section (N2) ([1]; [M-H]-): 182.86 Å²
CCCCC[C@H](O)/C=C/[C@H]1C(=O)C[C@H](O)[C@@H]1C/C=C\CCCC(=O)O [Prostaglandin D2]	–	–	196.63	collision cross section (N2) ([1]; [M+Na]+): 192.4 Å²; collision cross section (N2) ([1]; [M-H2O-H]-): 186.17 Å²
CCCCC[C@H](O)/C=C/[C@H]1[C@H](O)CC(=O)[C@@H]1C/C=C\CCCC(=O)O [Prostaglandin E2]	–	–	198.53	collision cross section (N2) ([1]; [M+Na]+): 196.8 Å²; collision cross section (N2) ([1]; [M-H2O-H]-): 183.57 Å²
c1ncc2[nH]cnc2n1 [Purine]	121.8	125.4	–	–
Cc1ncc(CO)c(C=O)c1O [Pyridoxal]	130.5	135.42	–	–
Cc1ncc(CO)c(CO)c1O [Pyridoxine]	134.6	135.69	148.49	collision cross section (N2) ([1]; [M-H]-): 130.75 Å²
C=C(C)[C@H]1Cc2c(ccc3c2O[C@@H]2COc4cc(OC)c(OC)cc4[C@@H]2C3=O)O1 [Rotenone]	–	199.63	213.17	–
C[C@]12CC[C@H]3[C@@H](CCC4=CC(=O)CC[C@@]43C)[C@@H]1CC[C@@H]2O [Testosterone]	172.7	183.82	206.07	collision cross section (N2) ([1]; [M-H]-): 175.64 Å²
CN(C)[C@@H]1C(=O)C(C(N)=O)=C(O)[C@@]2(O)C(=O)C3=C(O)c4c(O)cccc4[C@@](C)(O)[C@H]3C[C@@H]12 [Tetracycline]	–	198.48	212.5	–
CC(C)[C@]12CC(=O)[C@H](C)[C@H]1C2 [Thujone]	–	141.82	–	–

More lines, main results first:

collision cross section (N2) ([1]; [M+H]+) [Å²]	collision cross section (N2) ([2]; [M+H]+) [Å²]	collision cross section (N2) ([2]; [M+Na]+) [Å²]	Structure (SMILES)	other results
209	–	208.72	OC[C@H]1O[C@H](OC[C@H]2O[C@H](O[C@]3(CO)O[C@H](CO)[C@@H](O)[C@@H]3O)[C@H](O)[C@@H](O)[C@@H]2O)[C@H](O)[C@@H](O)[C@H]1O [Raffinose]	–
137.2	141.13	142.13	N[C@@H](CSCC(=O)O)C(=O)O [S-Carboxymethyl-L-cysteine]	–
–	–	236.4	OC[C@H]1O[C@H](OC[C@H]2O[C@H](OC[C@H]3O[C@H](O[C@]4(CO)O[C@H](CO)[C@@H](O)[C@@H]4O)[C@H](O)[C@@H](O)[C@@H]3O)[C@H](O)[C@@H](O)[C@H]2O)[C@H](O)[C@@H](O)[C@H]1O [Stachyose]	collision cross section (N2) ([1]; [M+Na]+): 234.1 Å²; collision cross section (N2) ([1]; [M-H]-): 221.12 Å²
–	187.9	208.15	COc1ccc(-c2cc(=O)c3c(OC)c(OC)c(OC)c(OC)c3o2)cc1 [Tangeritin]	–
–	–	202.08	CCCCC[C@H](O)/C=C/[C@H]1OC(O)C[C@H](O)[C@@H]1C/C=C\CCCC(=O)O (some centres undefined) [Thromboxane B2]	–
–	–	164.51	Cc1cn([C@H]2C[C@H](O)[C@@H](CO)O2)c(=O)[nH]c1=O [Thymidine]	collision cross section (N2) ([1]; [M+Na]+): 161 Å²; collision cross section (N2) ([1]; [M-H]-): 151.22 Å²
–	181	184.12	NC(=O)[C@@H]1CCCN1C(=O)[C@H](Cc1cnc[nH]1)NC(=O)[C@@H]1CCC(=O)N1 [Thyrotropin-releasing hormone]	–
–	–	154.46	O=c1ccc2ccc(O)cc2o1 [Umbelliferone]	–
–	169.81	175.14	O=c1ccn([C@@H]2O[C@H](COP(=O)(O)O)[C@@H](O)[C@H]2O)c(=O)[nH]1 [Uridine 5'-Monophosphate]	–
–	137.54	–	O=C(O)/C=C/c1cnc[nH]1 [Urocanate]	–
–	198.66	–	CC(C)=CCC/C(C)=C/CC/C(C)=C/CC/C(C)=C/CC1=C(C)C(=O)c2ccccc2C1=O [Vitamin K2]	–
–	145.78	159.12	C[C@@H]1NC(=O)N[C@@H]1CCCCCC(=O)O [d-Desthiobiotin]	–
–	–	142.16	O=P(O)(O)OC[C@H](O)CO [sn-Glycerol 3-phosphate]	–

Source: the C3SDB collision cross section collection
